Data from ChEMBL document CHEMBL4428112, “Columnaristerol A, a novel 19-norsterol from the Formosan octocoral Nephthea columnaris” (Bioorg Med Chem Lett, 2016).
The source made the active and inactive calls. No cut-off for these calls is given here.

Columns and labels:
Assay type in all cases: functional, cell-based
MOLT-4 = test: Cytotoxicity against human MOLT4 cells assessed as growth inhibition after 72 hrs by MTT assay; details: MOLT-4, 72 h
SUP-T1 = test: Cytotoxicity against human SupT1 cells assessed as growth inhibition after 72 hrs by MTT assay; details: SUP-T1, 72 h
K562 [1] = test: Cytotoxicity against human K562 cells assessed as growth inhibition at 20 ug/ml after 72 hrs by MTT assay
U-937 [2] = test: Cytotoxicity against human U937 cells assessed as growth inhibition at 20 ug/ml after 72 hrs by MTT assay
K562 [3] = test: Cytotoxicity against human K562 cells assessed as growth inhibition after 72 hrs by MTT assay; details: K562, 72 h
U-937 [4] = test: Cytotoxicity against human U937 cells assessed as growth inhibition after 72 hrs by MTT assay; details: U-937, 72 h

Compound | IC50 (MOLT-4) | IC50 (SUP-T1) | growth inhibition (GI) (K562 [1]) | growth inhibition (GI) (U-937 [2]) | IC50 (K562 [3]) | IC50 (U-937 [4])
C=C(CC[C@@H](C)[C@H]1CC[C@H]2[C@@H]3CC=C4C[C@@H](O)CC[C@]4(O)[C@H]3CC[C@]12C)C(C)C | 18.3 µM | 25.5 µM | inactive | inactive |  | 
COc1cccc2c1C(=O)c1c(O)c3c(c(O)c1C2=O)C[C@@](O)(C(=O)CO)C[C@@H]3O[C@H]1C[C@H](N)[C@H](O)[C@H](C)O1 [DOXORUBICIN] |  | 0.04 µM |  |  | 0.28 µM | 0.42 µM
